Experiment: wn = mass fraction of the nth substance listed
Details: 101.33 kPa, Liquid; for viscosity: Concentric cylinders viscometry; for mass density: Vibrating tube method

CC(O)CO (stereo unspecified) [1,2-propanediol] + O
Details	mass density [kg/m3]	viscosity [mPa·s]
253.15 K, w1 = 0.5005	1062.5	84.94
253.15 K, w1 = 0.672	1070.8	204.36
253.15 K, w1 = 0.8044	1071.6	415.71
253.15 K, w1 = 0.9481	1068.2	1067
253.15 K, w1 = 1	1065.8	1772.4
258.15 K, w1 = 0.3312	1041.7	21.95
258.15 K, w1 = 0.5005	1059.8	55.34
258.15 K, w1 = 0.672	1067.6	128.54
258.15 K, w1 = 0.8044	1068.1	256.2
258.15 K, w1 = 0.9481	1064.7	638.89
258.15 K, w1 = 1	1062.2	1038.3
263.15 K, w1 = 0.3312	1040	15.59
263.15 K, w1 = 0.5005	1056.9	37.52
263.15 K, w1 = 0.672	1064.3	84.22
263.15 K, w1 = 0.8044	1064.5	164.62
263.15 K, w1 = 0.9481	1061	396.61
263.15 K, w1 = 1	1058.6	631.08
268.15 K, w1 = 0.198	1021.7	5.78
268.15 K, w1 = 0.3312	1038.15	11.45
268.15 K, w1 = 0.5005	1054	26.37
268.15 K, w1 = 0.672	1060.9	57.22
268.15 K, w1 = 0.8044	1061.1	109.37
268.15 K, w1 = 0.9481	1057.4	254.76
268.15 K, w1 = 1	1054.9	396.99
273.15 K, w1 = 0.0988	1009.8	2.877
273.15 K, w1 = 0.198	1020.8	4.552
273.15 K, w1 = 0.3312	1036.3	8.655
273.15 K, w1 = 0.5005	1051.1	19.12
273.15 K, w1 = 0.672	1057.5	40.16
273.15 K, w1 = 0.8044	1057.6	75.05
273.15 K, w1 = 0.9481	1053.8	169.13
273.15 K, w1 = 1	1051.3	258
283.15 K, w1 = 0.0988	1008.2	1.991
283.15 K, w1 = 0.198	1017.8	3.017
283.15 K, w1 = 0.3312	1031.2	5.306
283.15 K, w1 = 0.5005	1044.6	10.83
283.15 K, w1 = 0.672	1050.5	21.24
283.15 K, w1 = 0.8044	1050.4	38.42
283.15 K, w1 = 0.9481	1045.6	86.69
283.15 K, w1 = 1	1042.9	116.68
293.15 K, w1 = 0.0988	1005.7	1.454
293.15 K, w1 = 0.198	1014.5	2.171
293.15 K, w1 = 0.3312	1026.3	3.536
293.15 K, w1 = 0.5005	1038.1	6.741
293.15 K, w1 = 0.672	1043.2	12.58
293.15 K, w1 = 0.8044	1042.9	21.75
293.15 K, w1 = 0.9481	1038.2	45.66
293.15 K, w1 = 1	1035.5	59.75

From the NIST ThermoML archive (doi:10.1021/acs.jced.8b00403)
